Measurements reported in US9006442B2, “Cannabinoid receptor modulators” (Lupin Limited, priority 2011, dated 2015).

What follows are compounds tested against hCB2 (Homo sapiens, UniProt P34972) (assay: cAMP determination in functional hCB2-CHO stable cells (HTRF)). Details: not given.
Format: cell-based
Experimental: In-Vitro Assay Method for Determination of cAMP in Functional hCB2—CHO Stable Cells:
Recombinant CHO-hCB2 cells (procured from Perkin Elmer Inc. USA) were propagated and maintained in Ham's F-12 complete medium containing 10% heat inactivated FBS (Sigma.UK) and 1× penstrep. For assay, 0.1×10^6 to 1.0×10^6 CHO-hCB2 cells were seeded in T-25 flask and grown to mid-log phase in culture media without antibiotics for 2-3 days. […] The test is performed in 96^1/2 area black well plates. For agonist testing, 20 μl cells/well were mixed with 20 μl of sample and 10 μl of forskolin (with final concentration of 10 μM) and incubated for 20 to 40 min at room temperature in incubator. The plate was then processed for the cAMP determination using cAMP Femto-2 HTRF kit (Cisbio, Germany) as per the manual.
The concentration of compound required to stimulate a half-maximal response (EC50) was determined using the GraphPad Prism software (version 5).

Sequence of hCB2 (P34972 whole entry): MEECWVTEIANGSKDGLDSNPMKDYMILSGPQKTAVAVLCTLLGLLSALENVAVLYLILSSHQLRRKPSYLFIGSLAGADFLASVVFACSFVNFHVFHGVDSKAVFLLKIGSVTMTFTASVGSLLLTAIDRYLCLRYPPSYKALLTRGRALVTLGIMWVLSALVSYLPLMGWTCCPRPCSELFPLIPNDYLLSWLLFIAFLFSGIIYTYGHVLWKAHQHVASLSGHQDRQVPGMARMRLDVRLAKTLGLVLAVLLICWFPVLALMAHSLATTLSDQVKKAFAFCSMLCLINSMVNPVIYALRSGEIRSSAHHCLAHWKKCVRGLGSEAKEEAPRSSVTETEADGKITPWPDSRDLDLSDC

Compound | EC50 [nM]
Cc1cccc2c(Nc3cccc(F)c3F)ccc(C(=O)N3CC4CC(C3)O4)c12 [Example-172, 6-Oxa-3-azabicyclo[3.1.1]heptan-3-yl(4-((2,3-difluorophenyl)amino)-8-methylnaphthalen-1-yl)methanone] | < 10
O=C(NCC1CCOCC1)c1ccc(Nc2cccc(Cl)c2)c2ccccc12 [Example-180, 4-((3-Chlorophenyl)amino)-N-((tetrahydro-2H-pyran-4-yl)methyl)-1-naphthamide] | 10 to 1000
O=C(c1ccc(Nc2ccc(Cl)cc2Cl)c2ccccc12)N1CCOCC1 [Example-197, (4-((2,4-Dichlorophenyl)amino)naphthalen-1-yl)(morpholino)methanone] | 10 to 1000
O=C(c1ccc(Nc2cccc(C(F)(F)F)c2)c2ccccc12)N1CCOCC1 [Example-201, Morpholino(4-((3-(trifluoromethyl)phenyl)amino)naphthalen-1-yl)methanone] | < 10
CCN(CC)C(=O)c1cnc(Nc2cccc(C(F)(F)F)c2F)c2cccc(C)c12 [compound 277, N,N-Diethyl-1-((2-fluoro-3-(trifluoromethyl)phenyl)amino)-5-methyl isoquinolin-4-carboxamide] | < 10
CCN(CC)C(=O)c1cnc(Nc2cccc(C(F)(F)F)c2C)c2cccc(C)c12 [compound 279, N,N-Diethyl-5-methyl-1-((2-methyl-3-(trifluoromethyl)phenyl)amino) isoquinolin-4-carboxamide] | < 10
CCN(CC)C(=O)c1cnc(Nc2cccc(Cl)c2F)c2cccc(C)c12 [compound 282, 1-((3-Chloro-2-fluorophenyl)amino)-N,N-diethyl-5-methyl isoquinolin-4-carboxamide] | 10 to 1000
CCN(CC)C(=O)c1cnc(Nc2cccc(Cl)c2C)c2cccc(Cl)c12 [compound 322, 5-Chloro-1-((3-chloro-2-methylphenyl)amino)-N,N-diethyl isoquinolin-4-carboxamide] | < 10
CCN(CC)C(=O)c1cnc(Nc2cccc(C(F)(F)F)c2C)c2cccc(Cl)c12 [compound 325, 5-Chloro-N-N-diethyl-1-((2-methyl-3-(trifluoromethyl)phenyl)amino) isoquinolin-4-carboxamide] | < 10
Cc1c(Nc2ncc(C(=O)N(C)C)c3c(Cl)cccc23)cccc1C(F)(F)F [compound 329, 5-Chloro-N,N-dimethyl-1-((2-methyl-3-(trifluoromethyl)phenyl)amino)isoquinolin-4-carboxamide] | < 10
CCN(C)C(=O)c1cnc(Nc2cccc(C(F)(F)F)c2C)c2cccc(Cl)c12 [compound 331, 5-Chloro-N-ethyl-N-methyl-1-((2-methyl-3-(trifluoromethyl)phenyl)amino)isoquinolin-4-carboxamide] | < 10
Cc1c(Cl)cccc1Nc1ncc(C(=O)N(C)C)c2c(Cl)cccc12 [compound 332, 5-Chloro-1-((3-chloro-2-methylphenyl)amino)-N,N-dimethyl isoquinolin-4-carboxamide] | < 10
CCN(C)C(=O)c1cnc(Nc2cccc(Cl)c2C)c2cccc(Cl)c12 [compound 357, 5-Chloro-1-((3-chloro-2-methylphenyl)amino)-N-ethyl-N-methyl isoquinolin-4-carboxamide] | < 10
CCN(C)C(=O)c1cnc(Nc2cccc(Cl)c2Cl)c2cccc(Cl)c12 [compound 363, 5-Chloro-1-((2,3-dichlorophenyl)amino)-N-ethyl-N-methyl isoquinolin-4-carboxamide] | < 10
Cc1c(Cl)cccc1Nc1ncc(C(=O)N(C)C(C)C)c2c(Cl)cccc12 [compound 384, 5-Chloro-1-((3-chloro-2-methylphenyl)amino)-N-isopropyl-N-methylisoquinolin-4-carboxamide] | 10 to 1000
CCN(C)C(=O)c1ccc(Nc2cccc(C(F)(F)F)c2F)c2cccc(C)c12 [compound 413, N-Ethyl-4-((2-fluoro-3-(trifluoromethyl)phenyl)amino)-N,8-dimethyl-1-naphthamide] | < 10

Same assay, conditions: CHO-hCB2 cells, cAMP, forskolin 10 μM, agonist testing; read-out: EC50 Range

EC50 [nM] | Compound
< 10 | Cc1c(F)cccc1Nc1ccc(C(=O)N2CC3CC3C2)c2c(C)cccc12 (centres unmarked) [Example-170, 3-Azabicyclo[3.1.0]hexan-3-yl(4-((3-fluoro-2-methylphenyl)amino)-8-methylnaphthalen-1-yl)methanone]
10 to 1000 | O=C(c1ccc(Nc2cc(F)cc(F)c2)c2ccccc12)N1CCOCC1 [Example-187, (4-((3,5-Difluorophenyl)amino)naphthalen-1-yl)(morpholino)methanone]
10 to 1000 | CC1COCC(C)N1C(=O)c1ccc(Nc2cc(F)cc(F)c2)c2ccccc12 (centres unmarked) [Example-190, (4-((3,5-Difluorophenyl)amino)naphthalen-1-yl)(3,5-dimethylmorpholino)methanone]
10 to 1000 | CN(C)C(=O)c1ccc(Nc2cccc(F)c2C(F)(F)F)c2cccc(Cl)c12 [Example-469, 8-Chloro-4-((3-fluoro-2-(trifluoromethyl)phenyl)amino)-N,N-dimethyl-1-naphthamide]
< 10 | CCN(CC)C(=O)c1cnc(Nc2cccc(C(=O)OC)c2C)c2cccc(Cl)c12 [compound 249, Methyl 2-methyl-3-((5-chloro-4-(diethylcarbamoyl)isoquinolin-1-yl)amino)benzoate]
< 10 | CCN(C)C(=O)c1cnc(Nc2cccc(C(F)(F)F)c2F)c2cccc(C)c12 [compound 292, N-Ethyl-1-((2-fluoro-3-(trifluoromethyl)phenyl)amino)-N,5-dimethyl isoquinolin-4-carboxamide]
< 10 | CN(C)C(=O)c1cnc(Nc2cccc(C(F)(F)F)c2Cl)c2cccc(Cl)c12 [compound 317, 5-Chloro-1-((2-chloro-3-(trifluoromethyl)phenyl)amino)-N,N-di methylisoquinolin-4-carboxamide]
< 10 | CCN(CC)C(=O)c1cnc(Nc2cccc(C(F)(F)F)c2F)c2cccc(Cl)c12 [compound 328, 5-Chloro-N,N-diethyl-1-((2-fluoro-3-(trifluoromethyl)phenyl)amino) isoquinolin-4-carboxamide]
< 10 | CN(C)C(=O)c1cnc(Nc2cccc(C(F)(F)F)c2F)c2cccc(Cl)c12 [compound 330, 5-Chloro-1-((2-fluoro-3-(trifluoromethyl)phenyl)amino)-N,N-dimethylisoquinolin-4-carboxamide]
< 10 | CN(C)C(=O)c1cnc(Nc2cccc(F)c2C(F)(F)F)c2cccc(Cl)c12 [compound 333, 5-Chloro-1-((3-fluoro-2-(trifluoromethyl)phenyl)amino)-N,N-di methylisoquinolin-4-carboxamide]
< 10 | CCN(C)C(=O)c1cnc(Nc2cccc(C(F)(F)F)c2F)c2cccc(Cl)c12 [compound 334, 5-Chloro-N-ethyl-1-((2-fluoro-3-(trifluoromethyl)phenyl)amino)-N-methylisoquinolin-4-carboxamide]
< 10 | CCN(C)C(=O)c1cnc(Nc2cccc(F)c2C(F)(F)F)c2cccc(Cl)c12 [compound 335, 5-Chloro-N-ethyl-1-((3-fluoro-2-(trifluoromethyl)phenyl)amino)-N-methylisoquinolin-4-carboxamide]
< 10 | CCN(C)C(=O)c1cnc(Nc2cccc(F)c2Cl)c2cccc(Cl)c12 [compound 336, 5-Chloro-1-((2-chloro-3-fluorophenyl)amino)-N-ethyl-N-methyl isoquinolin-4-carboxamide]
10 to 1000 | CCN(C)C(=O)c1cnc(Nc2c(F)ccc(F)c2F)c2cccc(Cl)c12 [compound 355, 5-Chloro-N-ethyl-N-methyl-1-((2,3,6-trifluorophenyl)amino) isoquinolin-4-carboxamide]
10 to 1000 | CC(C)N(C)C(=O)c1cnc(Nc2cccc(F)c2C(F)(F)F)c2cccc(Cl)c12 [compound 381, 5-Chloro-1-((3-fluoro-2-(trifluoromethyl)phenyl)amino)-N-isopropyl-N-methylisoquinolin-4-carboxamide]
< 10 | COC(=O)c1cccc(Nc2ccc(C(=O)N3CCCCC3)c3c(C)cccc23)c1 [compound 407, Methyl 3-((5-methyl-4-(piperidin-1-carbonyl)naphthalen-1-yl)amino) benzoate]
< 10 | COC(=O)c1cccc(Nc2ccc(C(=O)N3CCOCC3)c3c(C)cccc23)c1 [compound 408, Methyl 3-((5-methyl-4-(morpholin-4-carbonyl)naphthalen-1-yl)amino) benzoate]
< 10 | COC(=O)c1cccc(Nc2ccc(C(=O)N3CCCCC3)c3c(C)cccc23)c1C [compound 409, Methyl 2-methyl-3-((5-methyl-4-(piperidin-1-carbonyl)naphthalen-1-yl)amino)benzoate]
< 10 | COC(=O)c1cccc(Nc2ccc(C(=O)N3CCOCC3)c3c(C)cccc23)c1C [compound 410, Methyl 2-methyl-3-((5-methyl-4-(morpholin-4-carbonyl)naphthalen-1-yl)amino)benzoate]
< 10 | CCN(CC)C(=O)c1ccc(Nc2cccc(C(=O)OC)c2C)c2cccc(C)c12 [compound 411, Methyl 2-methyl-3-((5-methyl-4-(diethylcarbamoyl)naphthalen-1-yl)amino)benzoate]
< 10 | Cc1c(Nc2ccc(C(=O)N(C)C)c3c(C)cccc23)cccc1C(F)(F)F [compound 427, N,N,8-Trimethyl-4-((2-methyl-3-(trifluoromethyl)phenyl)amino)-1-naphthamide]
< 10 | CCN(C)C(=O)c1ccc(Nc2cccc(C(F)(F)F)c2C)c2cccc(C)c12 [compound 452, N-Ethyl-N,8-dimethyl-4-((2-methyl-3-(trifluoromethyl)phenyl)amino)-1-naphthamide]
